Tested on: poly A–poly U (pApU, ds-RNA) (RNA, polymer) A/U
Experiment: fluorimetric titration, Scatchard fit
Details: Na+ (sodium cacodylate, I = 0.05 M), pH 7.0, 25 °C, recalculated for fixed n = 0.2 [bound dye]/[polynucleotide], c(nucleobase), per base

Row | SMILES | log Ks (TB-p 5 µM) | log Ks (TB-AA 3 µM)
1 | C#CC[N+](C)(C)c1cc(C)c(B(c2c(C)cccc2C)c2c(C)cc(N(C)C)cc2C)c(C)c1 | 7.1 | 
2 | Cc1cccc(C)c1B(c1c(C)cc(N(C)C)cc1C)c1c(C)cc([N+](C)(C)Cc2cn(CC[C@H](NC(=O)OCC3c4ccccc4-c4ccccc43)C(=O)O)nn2)cc1C |  | 6.0

Source: PMC10535762 (2023)
